Literature values in patent US20090162416A1, “Polymer implants for timed release of drugs with particular emphasis on ovulation or spermiation of fish” (priority 2007, published 2009).
Non-standard residues stand in square brackets, D forms with d. pGlu = O=C1CC[C@@H](C(=O)O)N1

System: seasonable ripe gravid female catfish
Conditions: 0.45 mg/lb of body weight

**Q.** For “-Glp-His-Trp-Ser-Tyr-Gly-Leu-Arg-Pro-ethylamide- ([pGlu]HWSYGLRP-NHEt) [LHRH, nine amino acid synthetic polypeptide used to promote ovulation in catfish]”, which “time to ovulation after single injection” value is on record?
**A.** ≤ 12 h
